US5840917A, “Phosphorylamides, their preparation and use” (Takeda Chemical Industries, Ltd., priority 1995, dated 1998)
Read-outs that look alike come from different tables or passages of the source.

Experiments:
[1] = test system: Helicobacter pylori (CPY-433 F4); assay: Bacteria eradication effect of urease inhibitor (in vivo) in infected mice; settings: male ICR mice, 10 mg/kg p.o. twice daily, lansoprazole 30 mg/kg s.c. once daily before first dose
[2] = molecular target: T1, Helicobacter pylori-derived urease (Helicobacter pylori, UniProt P69996); assay: Screening of urease inhibitors (ammonia yield from urea); format: biochemical
T1 construct: an urease solution prepared from Helicobacter pylori; endogenous in cells

[3] = test system: Helicobacter pylori CPY 433 F4; assay: Bacteria eradication effect of flurofamide in infected mice; format: in vivo; settings: male Crj:ICR mice; 100 mg/kg p.o. twice daily, 7 days, in 0.5% methylcellulose containing 1% sodium bicarbonate; * p<0.05 (chi^2 test); control 0/4
Procedure: Bacteria Eradication Effect of Flurofamide
To 5-week-aged male Crj:ICR mice previously fasted for 30 hours, Helicobacter pylori CPY 433 F4 was inoculated intragastrically at 10^7 CFU per mouse. One week after the infection, a test compound which was suspended in 0.5% methylcellulose containing 1% sodium bicarbonate was orally administered at 100 mg/kg twice daily for 7 days. On the next day after the final administration, the stomach of the infected mouse was excised and homogenated. A series of 10-fold dilutions were inoculated to modified Skirrow medium supplemented with activated charcoal and incubated at 37° C. for 4 days under slightly aerobic conditions. The bacteria eradication effect was determined by investigating whether bacterial growth was seen or not.

[4] = 4 days for therapy, control 0/5

T1 sequence (P69996 whole entry, looked up): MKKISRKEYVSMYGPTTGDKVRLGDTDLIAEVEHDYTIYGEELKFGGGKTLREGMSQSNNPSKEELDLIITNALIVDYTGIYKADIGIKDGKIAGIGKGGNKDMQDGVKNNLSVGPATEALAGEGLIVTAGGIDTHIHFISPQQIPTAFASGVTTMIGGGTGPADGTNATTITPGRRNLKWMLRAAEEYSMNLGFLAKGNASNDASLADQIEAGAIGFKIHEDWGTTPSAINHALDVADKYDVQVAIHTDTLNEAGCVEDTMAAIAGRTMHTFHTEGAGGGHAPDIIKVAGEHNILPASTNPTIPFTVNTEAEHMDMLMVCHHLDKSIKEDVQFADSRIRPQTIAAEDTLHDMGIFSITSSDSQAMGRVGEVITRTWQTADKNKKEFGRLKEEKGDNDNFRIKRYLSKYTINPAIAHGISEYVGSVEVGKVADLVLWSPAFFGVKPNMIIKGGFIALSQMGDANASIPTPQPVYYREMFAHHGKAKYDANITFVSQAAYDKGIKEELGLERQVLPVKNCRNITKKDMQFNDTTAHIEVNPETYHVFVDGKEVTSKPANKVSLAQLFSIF

Row | SMILES | Eradication Rate ([1]; 3 days for therapy) | IC50 [2] [nM] | IC50 ([2]; Bis-Tris pH 6.5, room temperature, 30 min preincubation, 10 min with urea, read-out: IC50, inhibitory effect against Helicobacter pylori-derived urease) [nM] | Eradication Rate [3] | Eradication Rate [1, 4]
1 | NP(N)(=O)NC(=O)COc1ccc(F)cc1 [Example 54, N-(Diaminophosphinyl)-4-fluorophenoxyacetamide] | 1/5 | 3.3 |  |  | 
2 | NP(N)(=O)NC(=O)c1ccc(F)cc1 [Reference Example 1, N-(Diaminophosphinyl)-4-fluorobenzamide, reference compound] |  |  | 5 | 4/5 | 
3 | N#Cc1ccc(C(=O)NP(N)(N)=O)cc1 [Reference Example 17, N-(Diaminophosphinyl)-4-cyanobenzamide] |  | 5.4 |  |  | 1/5
4 | NP(N)(=O)NC(=O)c1ccc(Br)cc1 [Reference Example 22, N-(Diaminophosphinyl)-4-bromobenzamide] |  | 9.3 |  |  | 1/5
5 | NP(N)(=O)NC(=O)c1cccc([N+](=O)[O-])c1 [Reference Example 23, N-(Diaminophosphinyl)-3-nitrobenzamide] |  | 5.7 |  |  | 1/5
6 | NP(N)(=O)NC(=O)c1ccco1 [Reference Example 25, N-(Diaminophosphinyl)-2-furancarboxamide] |  | 1.9 |  |  | 1/5
7 | NP(N)(=O)NC(=O)c1ccoc1 [Reference Example 29, N-(Diaminophosphinyl)-3-furancarboxamide] |  | 5.9 |  |  | 2/5
8 | NP(N)(=O)NC(=O)c1ccc([N+](=O)[O-])o1 [Reference Example 30, N-(Diaminophosphiny1)-5-nitro-2-furancarboxamide] | 2/5 | 4.3 |  |  | 
